Laboratory results taken from the NIST ThermoML archive (doi:10.1016/j.jct.2016.01.008).
± gives the expanded uncertainty stated by the source.

Conditions: Liquid; for mass density: 298.15 K, 101.33 kPa, Vibrating tube method; for Normal boiling temperature: Ebulliometric method (Recirculating still)

Row | SMILES | mass density | Normal boiling temperature
1 | CC12CCC(CC1)C(C)(C)O2 [1,3,3-trimethyl-2-oxabicyclo[2.2.2]octane] | 920.68 ± 0.12 kg/m3 | 176.1 ± 0.4 °C
2 | CCO [ethanol] | 785.27 ± 0.15 kg/m3 | 78.2 ± 0.4 °C
